The source made the active and inactive calls. The calls are words filed in the database; no cut-off is given here.
How the values were obtained:
[1] = biological target: Serine/threonine-protein kinase SIK1 (Homo sapiens, UniProt P57059); test: Inhibition of SIK1 (unknown origin)
[2] = biological target: Serine/threonine-protein kinase SIK2 (Homo sapiens, UniProt Q9H0K1); test: Inhibition of SIK2 (unknown origin)
[3] = biological target: Serine/threonine-protein kinase SIK3 (Homo sapiens, UniProt Q9Y2K2); test: Inhibition of SIK3 (unknown origin)
[4] = Metabolic stability in human liver microsomes assessed as half life; format: ADME, Microsome
[5] = Selectivity ratio of IC50 for SIK3 (unknown origin) to IC50 for SIK2 (unknown origin)
[6] = biological target: Tyrosine-protein kinase ABL1 (Homo sapiens) (UniProt P00519); test: Inhibition of Abl (unknown origin) at 1 uM
[7] = biological target: Tyrosine-protein kinase ABL2 (Homo sapiens) (UniProt P42684); test: Inhibition of ARG (unknown origin) at 1 uM
[8] = biological target: Activated CDC42 kinase 1 (Homo sapiens) (UniProt Q07912); test: Inhibition of ACK1 (unknown origin) at 1 uM
[9] = biological target: Proto-oncogene tyrosine-protein kinase Src (Homo sapiens) (UniProt P12931); test: Inhibition of cSRC (unknown origin) at 1 uM
[10] = biological target: Tyrosine-protein kinase Fgr (Homo sapiens) (UniProt P09769); test: Inhibition of Fgr (unknown origin) at 1 uM
[11] = biological target: Tyrosine-protein kinase Lck (Homo sapiens) (UniProt P06239); test: Inhibition of LcK (unknown origin) at 1 uM
[12] = biological target: Proto-oncogene tyrosine-protein kinase Src (Homo sapiens) (UniProt P12931); test: Inhibition of SRC (1 to 530 residues)(unknown origin) at 1 uM
[13] = biological target: Tyrosine-protein kinase Yes (Homo sapiens) (UniProt P07947); test: Inhibition of Yes (unknown origin) at 1 uM
[14] = biological target: Tyrosine-protein kinase Fyn (Homo sapiens) (UniProt P06241); test: Inhibition of Fyn (unknown origin) at 1 uM
[15] = biological target: Tyrosine-protein kinase Blk (Homo sapiens) (UniProt P51451); test: Inhibition of BlK (unknown origin) at 1 uM
[16] = biological target: Tyrosine-protein kinase TXK (Homo sapiens) (UniProt P42681); test: Inhibition of Txk (unknown origin) at 1 uM
[17] = AUC (0 to t) in Sprague-Dawley rat at 5 mg/kg, iv measured upto 24 hrs by LC/MS/MS analysis; format: ADME, organism-based; set-up: time < 24 hrs, dose 5 mg/kg, route iv; conditions: in vivo
[18] = Clearance in Sprague-Dawley rat at 5 mg/kg, iv measured upto 24 hrs by LC/MS/MS analysis; format: ADME, organism-based; conditions: in vivo
[19] = Half life in Sprague-Dawley rat at 10 mg/kg, po measured upto 24 hrs by LC/MS/MS analysis; format: ADME, organism-based; conditions: in vivo
[20] = Clearance in Sprague-Dawley rat at 10 mg/kg, po measured upto 24 hrs by LC/MS/MS analysis; format: ADME, organism-based; conditions: in vivo
[21] = Cmax in Sprague-Dawley rat at 10 mg/kg, po measured upto 24 hrs by LC/MS/MS analysis; format: ADME, organism-based; set-up: dose 10 mg/kg, time < 24 hrs, route po; conditions: in vivo
[22] = Oral bioavailability in Sprague-Dawley rat at 10 mg/kg measured upto 24 hrs by LC/MS/MS analysis; format: ADME, organism-based; conditions: in vivo
BMDM [23] = test: Anti-inflammatory activity against C57BL/6J mouse BMDM cells assessed as decrease in IL-12 level at 500 nM preincubated for 1 hr followed by LPS stimulation measured after 8 hrs by ELISA method; format: functional, cell-based; conditions: time 9.0 hrs
BMDM [24] = test: Anti-inflammatory activity against C57BL/6J mouse BMDM cells assessed as decrease in IL-12 level upto 500 nM preincubated for 1 hr followed by LPS stimulation measured after 8 hrs by ELISA method; format: functional, cell-based; conditions: time 9.0 hrs
[25] = biological target: Serine/threonine-protein kinase SIK2 (Mus musculus) (UniProt Q8CFH6); test: Inhibition of SIK2 in C57BL/6J mouse BMDM cells assessed as increase in IL-10 mRNA level at 500 nM preincubated for 1 hr followed by LPS stimulation measured for 2 to 4 hrs by qPCR analysis; format: cell-based; conditions: time 3-5 hrs
[26] = biological target: Serine/threonine-protein kinase SIK2 (Mus musculus) (UniProt Q8CFH6); test: Inhibition of SIK2 in C57BL/6J mouse BMDM cells assessed as increase in c-FOS mRNA level at 500 nM preincubated for 1 hr followed by LPS stimulation measured for 2 to 4 hrs by qPCR analysis; format: cell-based; conditions: time 3-5 hrs
[27] = biological target: Serine/threonine-protein kinase SIK2 (Mus musculus) (UniProt Q8CFH6); test: Inhibition of SIK2 in C57BL/6J mouse BMDM cells assessed as increase in Nurr77 mRNA level at 500 nM preincubated for 1 hr followed by LPS stimulation measured for 1 hr by qPCR analysis; format: cell-based; conditions: time 2.0 hrs
[28] = biological target: Serine/threonine-protein kinase SIK2 (Mus musculus) (UniProt Q8CFH6); test: Inhibition of SIK2 in C57BL/6J mouse BMDM cells assessed as increase in Nurr77 mRNA level at 500 nM preincubated for 1 hr followed by LPS stimulation measured for 2 to 4 hrs by qPCR analysis; format: cell-based; conditions: time 3-5 hrs
[29] = biological target: Serine/threonine-protein kinase SIK2 (Mus musculus) (UniProt Q8CFH6); test: Inhibition of SIK2 in C57BL/6J mouse BMDM cells assessed as increase in IL-12 mRNA level at 500 nM preincubated for 1 hr followed by LPS stimulation measured after 8 hrs by qPCR analysis; format: cell-based; conditions: time 9.0 hrs
BMDM [30] = test: Effect on TLR-stimulated CREB phosphorylation at Ser133 residue in C57BL/6J mouse BMDM cells at 500 nM preincubated for 1 hr followed by LPS stimulation measured upto 60 mins by Western blot analysis; format: functional, cell-based; conditions: time 2.0 hrs
BMDM [31] = test: Upregulation of CREB-dependent gene transcription in C57BL/6J mouse BMDM cells assessed as CRTC3 translocation to nucleus at 500 nM preincubated for 1 hr followed by LPS stimulation measured after 1 hr by immunofluorescence analysis; format: functional, cell-based; conditions: time 2.0 hrs
[32] = biological target: Serine/threonine-protein kinase SIK2 (Mus musculus) (UniProt Q8CFH6); test: Inhibition of SIK2 in C57BL/6J mouse BMDM cells assessed as increase in LIGHT mRNA level at 500 nM preincubated for 1 hr followed by LPS stimulation measured upto 8 hrs by qPCR analysis; format: cell-based; conditions: time <= 9.0 hrs
[33] = biological target: Serine/threonine-protein kinase SIK2 (Mus musculus) (UniProt Q8CFH6); test: Inhibition of SIK2 in C57BL/6J mouse BMDM cells assessed as increase in arginase 1 mRNA level at 500 nM preincubated for 1 hr followed by LPS stimulation measured upto 8 hrs by qPCR analysis; format: cell-based; conditions: time <= 9.0 hrs
Mus musculus [34] = test: Antiinflammatory activity in DSS-induced colitis C57BL/6J mouse model assessed as increase in body weight at 7.5 to 30 mg/kg, ip; format: functional, organism-based; conditions: dose 7.5-30 mg/kg
Mus musculus [35] = test: Antiinflammatory activity in DSS-induced colitis C57BL/6J mouse model assessed as decrease in disease activity index at 7.5 to 30 mg/kg, ip; format: functional, organism-based; conditions: dose 7.5-30 mg/kg
Mus musculus [36] = test: Antiinflammatory activity in DSS-induced colitis C57BL/6J mouse model assessed as decrease in disease activity index at 50 to 100 mg/kg, po; format: functional, organism-based; conditions: dose 50-100 mg/kg
Mus musculus [37] = test: Antiinflammatory activity in DSS-induced colitis C57BL/6J mouse model assessed as decrease in thickening of inherent base layer at 50 to 100 mg/kg, po measured after 12 days by H&E staining based analysis; format: functional, organism-based; conditions: dose 50-100 mg/kg, time 12.0 day

Chain of Serine/threonine-protein kinase SIK2 (Mus musculus) (Q8CFH6 whole entry): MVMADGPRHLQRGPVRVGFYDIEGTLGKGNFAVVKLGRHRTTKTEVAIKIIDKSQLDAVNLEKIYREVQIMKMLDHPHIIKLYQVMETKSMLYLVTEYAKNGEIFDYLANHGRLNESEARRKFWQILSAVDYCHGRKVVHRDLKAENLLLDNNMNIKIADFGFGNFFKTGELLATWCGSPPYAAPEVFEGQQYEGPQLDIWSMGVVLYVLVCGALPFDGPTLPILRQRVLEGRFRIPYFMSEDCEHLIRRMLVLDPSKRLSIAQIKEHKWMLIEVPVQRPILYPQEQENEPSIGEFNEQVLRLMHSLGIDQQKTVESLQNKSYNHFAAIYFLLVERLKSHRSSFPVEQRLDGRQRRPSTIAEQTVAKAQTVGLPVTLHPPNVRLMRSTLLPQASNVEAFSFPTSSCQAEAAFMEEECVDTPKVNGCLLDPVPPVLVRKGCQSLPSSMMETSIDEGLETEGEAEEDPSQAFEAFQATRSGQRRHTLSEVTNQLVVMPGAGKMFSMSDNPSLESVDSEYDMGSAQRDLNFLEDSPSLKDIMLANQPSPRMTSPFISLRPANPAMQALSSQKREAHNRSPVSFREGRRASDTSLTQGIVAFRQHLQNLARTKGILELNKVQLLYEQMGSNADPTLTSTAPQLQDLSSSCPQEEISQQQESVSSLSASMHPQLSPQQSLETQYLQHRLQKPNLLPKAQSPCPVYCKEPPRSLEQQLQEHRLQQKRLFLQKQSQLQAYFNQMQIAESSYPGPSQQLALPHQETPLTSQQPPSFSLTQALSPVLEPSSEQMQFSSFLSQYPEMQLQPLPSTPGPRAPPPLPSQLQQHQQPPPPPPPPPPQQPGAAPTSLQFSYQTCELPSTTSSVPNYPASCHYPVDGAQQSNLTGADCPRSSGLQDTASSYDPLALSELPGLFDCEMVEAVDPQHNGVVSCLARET
Chain of Proto-oncogene tyrosine-protein kinase Src (Homo sapiens) (P12931 2-536 limits assumed): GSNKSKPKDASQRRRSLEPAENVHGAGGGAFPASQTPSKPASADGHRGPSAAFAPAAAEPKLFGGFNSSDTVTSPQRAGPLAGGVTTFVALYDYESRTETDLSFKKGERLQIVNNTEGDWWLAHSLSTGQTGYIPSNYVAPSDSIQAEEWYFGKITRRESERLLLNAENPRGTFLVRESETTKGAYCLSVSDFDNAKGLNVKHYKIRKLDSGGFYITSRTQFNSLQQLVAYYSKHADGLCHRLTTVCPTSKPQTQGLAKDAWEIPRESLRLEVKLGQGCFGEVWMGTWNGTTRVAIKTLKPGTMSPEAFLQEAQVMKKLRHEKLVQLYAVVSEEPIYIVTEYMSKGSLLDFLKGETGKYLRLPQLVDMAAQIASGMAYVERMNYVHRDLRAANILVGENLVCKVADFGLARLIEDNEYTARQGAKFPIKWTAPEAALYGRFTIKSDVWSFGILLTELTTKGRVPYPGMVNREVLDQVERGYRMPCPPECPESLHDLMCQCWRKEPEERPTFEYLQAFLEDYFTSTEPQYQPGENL
Chain of Serine/threonine-protein kinase SIK2 (Q9H0K1 whole entry): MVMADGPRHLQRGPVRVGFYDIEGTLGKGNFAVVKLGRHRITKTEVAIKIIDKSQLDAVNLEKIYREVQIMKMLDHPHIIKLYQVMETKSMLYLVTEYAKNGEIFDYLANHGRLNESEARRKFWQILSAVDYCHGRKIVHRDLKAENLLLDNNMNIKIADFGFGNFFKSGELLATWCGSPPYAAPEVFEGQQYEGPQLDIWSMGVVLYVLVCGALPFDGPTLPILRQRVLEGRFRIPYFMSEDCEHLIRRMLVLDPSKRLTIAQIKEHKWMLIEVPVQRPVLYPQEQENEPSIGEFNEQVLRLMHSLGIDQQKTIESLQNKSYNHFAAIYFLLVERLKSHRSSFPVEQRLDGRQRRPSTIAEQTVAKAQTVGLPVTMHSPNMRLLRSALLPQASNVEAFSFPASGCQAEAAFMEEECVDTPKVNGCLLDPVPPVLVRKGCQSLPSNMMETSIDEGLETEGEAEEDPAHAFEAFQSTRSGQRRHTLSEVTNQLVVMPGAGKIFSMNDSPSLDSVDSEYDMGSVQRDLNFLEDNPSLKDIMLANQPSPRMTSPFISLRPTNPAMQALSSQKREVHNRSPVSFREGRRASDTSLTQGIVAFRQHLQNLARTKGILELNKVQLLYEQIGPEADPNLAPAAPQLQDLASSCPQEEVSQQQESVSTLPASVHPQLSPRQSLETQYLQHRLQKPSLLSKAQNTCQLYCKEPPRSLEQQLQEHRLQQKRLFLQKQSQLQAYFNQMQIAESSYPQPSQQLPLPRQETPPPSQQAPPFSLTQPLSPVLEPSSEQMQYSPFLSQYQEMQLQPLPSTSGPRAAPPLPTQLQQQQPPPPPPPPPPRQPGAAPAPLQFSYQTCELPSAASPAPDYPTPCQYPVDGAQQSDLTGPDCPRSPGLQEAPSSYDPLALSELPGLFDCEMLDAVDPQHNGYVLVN
Chain of Tyrosine-protein kinase Fyn (Homo sapiens) (P06241 2-537 limits assumed): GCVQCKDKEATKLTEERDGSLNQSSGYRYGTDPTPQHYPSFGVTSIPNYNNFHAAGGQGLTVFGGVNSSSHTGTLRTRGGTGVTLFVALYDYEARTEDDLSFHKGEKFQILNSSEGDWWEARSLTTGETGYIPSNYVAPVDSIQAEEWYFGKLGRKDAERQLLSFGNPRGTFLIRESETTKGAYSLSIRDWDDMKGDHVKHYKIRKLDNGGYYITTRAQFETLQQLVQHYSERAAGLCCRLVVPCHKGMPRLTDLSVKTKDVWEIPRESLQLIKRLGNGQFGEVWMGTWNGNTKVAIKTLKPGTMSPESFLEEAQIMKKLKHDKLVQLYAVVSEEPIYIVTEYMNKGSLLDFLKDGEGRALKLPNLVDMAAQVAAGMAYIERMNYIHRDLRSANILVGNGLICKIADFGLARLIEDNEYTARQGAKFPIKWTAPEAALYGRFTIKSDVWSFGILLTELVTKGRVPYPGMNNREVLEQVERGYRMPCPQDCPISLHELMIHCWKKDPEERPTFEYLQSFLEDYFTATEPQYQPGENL
Chain of Tyrosine-protein kinase Yes (Homo sapiens) (P07947 2-543 limits assumed): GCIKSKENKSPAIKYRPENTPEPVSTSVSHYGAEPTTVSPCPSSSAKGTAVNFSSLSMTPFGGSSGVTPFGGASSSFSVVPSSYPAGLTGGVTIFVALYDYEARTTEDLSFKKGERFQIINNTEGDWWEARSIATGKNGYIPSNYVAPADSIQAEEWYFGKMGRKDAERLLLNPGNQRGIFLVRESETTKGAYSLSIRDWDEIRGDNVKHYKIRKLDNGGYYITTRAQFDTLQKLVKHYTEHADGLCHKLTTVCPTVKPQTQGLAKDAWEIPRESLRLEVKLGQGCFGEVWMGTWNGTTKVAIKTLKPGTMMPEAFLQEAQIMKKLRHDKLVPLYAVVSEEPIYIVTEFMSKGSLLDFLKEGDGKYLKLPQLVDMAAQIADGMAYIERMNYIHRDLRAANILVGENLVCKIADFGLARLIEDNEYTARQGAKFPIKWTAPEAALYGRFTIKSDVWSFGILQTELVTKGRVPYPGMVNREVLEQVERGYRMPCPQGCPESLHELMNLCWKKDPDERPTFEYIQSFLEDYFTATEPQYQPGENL
Chain of Tyrosine-protein kinase TXK (Homo sapiens) (P42681 whole entry): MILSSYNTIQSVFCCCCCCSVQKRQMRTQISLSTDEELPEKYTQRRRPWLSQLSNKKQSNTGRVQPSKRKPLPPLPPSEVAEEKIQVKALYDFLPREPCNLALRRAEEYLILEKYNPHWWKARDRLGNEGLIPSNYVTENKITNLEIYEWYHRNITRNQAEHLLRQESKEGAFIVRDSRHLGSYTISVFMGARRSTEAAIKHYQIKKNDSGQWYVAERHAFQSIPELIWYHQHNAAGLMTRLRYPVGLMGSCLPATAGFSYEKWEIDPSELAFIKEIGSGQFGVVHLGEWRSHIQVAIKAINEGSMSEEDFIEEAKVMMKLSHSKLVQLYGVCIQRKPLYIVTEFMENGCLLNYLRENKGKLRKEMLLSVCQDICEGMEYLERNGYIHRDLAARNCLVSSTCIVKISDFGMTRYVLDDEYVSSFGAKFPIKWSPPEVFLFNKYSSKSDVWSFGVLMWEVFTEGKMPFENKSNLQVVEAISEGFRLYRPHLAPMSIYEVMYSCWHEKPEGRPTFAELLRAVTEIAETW
Chain of Serine/threonine-protein kinase SIK1 (P57059 whole entry): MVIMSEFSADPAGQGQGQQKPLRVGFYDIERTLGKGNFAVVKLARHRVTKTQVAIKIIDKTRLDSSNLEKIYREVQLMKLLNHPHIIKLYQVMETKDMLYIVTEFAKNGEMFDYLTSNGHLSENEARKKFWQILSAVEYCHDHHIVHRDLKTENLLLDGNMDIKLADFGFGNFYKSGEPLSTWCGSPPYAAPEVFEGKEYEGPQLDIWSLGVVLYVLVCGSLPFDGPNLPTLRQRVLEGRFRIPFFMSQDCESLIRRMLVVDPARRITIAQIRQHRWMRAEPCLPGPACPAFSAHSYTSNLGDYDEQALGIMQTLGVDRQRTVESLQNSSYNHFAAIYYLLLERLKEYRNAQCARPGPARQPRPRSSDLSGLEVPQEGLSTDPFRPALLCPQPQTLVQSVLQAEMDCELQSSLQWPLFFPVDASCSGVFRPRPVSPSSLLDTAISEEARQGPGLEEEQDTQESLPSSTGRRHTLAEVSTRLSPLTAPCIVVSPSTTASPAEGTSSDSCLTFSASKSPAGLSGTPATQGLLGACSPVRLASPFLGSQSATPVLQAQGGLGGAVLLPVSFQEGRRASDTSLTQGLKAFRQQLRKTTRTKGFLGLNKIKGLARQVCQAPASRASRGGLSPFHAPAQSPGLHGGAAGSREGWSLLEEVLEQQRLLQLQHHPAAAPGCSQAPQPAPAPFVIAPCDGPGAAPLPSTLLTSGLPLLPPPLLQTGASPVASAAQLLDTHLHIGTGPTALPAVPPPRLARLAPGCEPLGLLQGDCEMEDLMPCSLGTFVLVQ

IC50 [1]: 24 nM | IC50 [2]: 8 nM | IC50 [3]: 146 nM | half-life [4]: > 2 h | Ratio IC50 [5]: 18.3 | inhibition [6]: Active | inhibition [7]: Active | inhibition [8]: Active | inhibition [9]: Active | inhibition [10]: Active | inhibition [11]: Active | inhibition [12]: Active | inhibition [13]: Active | inhibition [14]: Active | inhibition [15]: Active | inhibition [16]: Active | AUC(0-t) at 24 h [17]: 20300 ng·h/mL | clearance [18]: 3.33 mL/min/kg | half-life [19]: 17.1 h | CL/F [20]: 11.7 mL/min/kg | Cmax [21]: 572 ng/mL | bioavailability [22]: 23% | inhibition [25]: inactive | inhibition [26]: inactive | inhibition [27]: Active | inhibition [28]: inactive | inhibition [29]: inactive | inhibition [32]: Active | inhibition [33]: Active
Compound: Cc1cccc(F)c1NC(=O)c1cnc(Nc2ccc(N3CCN(C)CC3)c(F)c2)nc1NC1CCC1
Activity (BMDM [23]): Active | Activity (BMDM [24]): Active | Activity (BMDM [30]): inactive | Activity (BMDM [31]): Active | Activity (Mus musculus [34]): Active | Activity (Mus musculus [35]): Active | Activity (Mus musculus [36]): Active | Activity (Mus musculus [37]): Active

— ChEMBL document CHEMBL5370540, “Discovery of pyrimidine-5-carboxamide derivatives as novel salt-inducible kinases (SIKs) inhibitors for inflammatory bowel disease (IBD) treatment” (Eur J Med Chem, 2023)
